# Laboratory results reported in US7361665B2, “Inhibitors of c-Jun N-terminal kinases (JNK) and other protein kinases” (Vertex Pharmaceuticals Incorporated, priority 2002, dated 2008).
# Target: T1, JNK3 (Homo sapiens, UniProt P53779)
# T1 construct: One such construct encodes amino acid residues Ser40-Glu402 of JNK3α1 and is preceded by Met and Gly residues; Met-Gly dipeptide (initiation Met plus Gly added for the NcoI site) (N); made in house; host or cells: E. coli BL21 (DE3)
# Assay: JNK inhibition assay (spectrophotometric coupled-enzyme assay)
# Format: biochemical
# Details: activated JNK3 10 nM, 10 μM ATP, 30° C.; read-out: JNK3 Activity (Ki rating)
# Source text: A BLAST search of the EST database using the published JNK3α1 cDNA as a query identified an EST clone (#632588) that contained the entire coding sequence for human JNK3α1. Polymerase chain reactions (PCR) using pfu polymerase (Strategene) were used to introduce restriction sites into the cDNA for cloning into the pET-15B expression vector at the NcoI and BamHI sites. The protein was expressed in E. coli. Due to the poor solubility of the expressed full-length protein (Met 1-Gln 422), an N-terminally truncated protein starting at Ser residue at position 40 (Ser 40) was produced. This truncation corresponds to Ser 2 of JNK1 and JNK2 proteins, and is preceded by a methionine (initiation) and a glycine residue. The glycine residue was added in order to introduce an NcoI site for cloning into the expression vector. In addition, systematic C-terminal truncations were performed by PCR to identify a construct that give rise to diffraction-quality crystals. One such construct encodes amino acid residues Ser40-Glu402 of JNK3α1 and is preceded by Met and Gly residues.
# Five mg of JNK3 was diluted to 0.5 mg/ml in 50 mM HEPES buffer, pH 7.5, containing 100 mM NaCl, 5 mM DTT, 20 mM MgCl2 and 1 mM ATP. GST-MKK7(DD) was added at a molar ratio of 1:2.5 GST-MKK7:JNK3. After incubation for 30 minutes at 25° C., the reaction mixture was concentrated 5-fold by ultrafiltration in a Centriprep-30 (Amicon, Beverly, Mass.), diluted to 10 ml and an additional 1 mM ATP added. This procedure was repeated three times to remove ADP and replenish ATP. The final addition of ATP was 5 mM and the mixture incubated overnight at 4° C.
# The activated JNK3/GST-MKK7(DD) reaction mixture was exchanged into 50 mM HEPES buffer, pH 7.5, containing 5 mM DTT and 5% glycerol (w/v) by dialysis or ultrafiltration. The reaction mixture was adjusted to 1.1 M potassium phosphate, pH 7.5, and purified by hydrophobic interaction chromatography (at 25° C.) using a Rainin Hydropore column. […] Activated JNK3 (i.e. doubly phosphorylated JNK3) was stored at −70° C. at 0.25-1 mg/ml.
# Compounds were assayed for the inhibition of JNK3 by a spectrophotometric coupled-enzyme assay. In this assay, a fixed concentration of activated JNK3 (10 nM) was incubated with various concentrations of a potential inhibitor dissolved in DMSO for 10 minutes at 30° C. in a buffer containing 0.1 M HEPES buffer, pH 7.5, containing 10 mM MgCl2, 2.5 mM phosphoenolpyruvate, 200 μM NADH, 150 μg/mL pyruvate kinase, 50 μg/mL lactate dehydrogenase, and 200 μM EGF receptor peptide. The EGF receptor peptide has the sequence […] (SEQ ID NO: 3), and is a phosphoryl acceptor in the JNK3-catalyzed kinase reaction. The reaction was initiated by the addition of 10 μM ATP and the assay plate is inserted into the spectrophotometer's assay plate compartment that was maintained at 30° C. The decrease of absorbance at 340 nm was monitored as a function of time. The rate data as a function of inhibitor concentration was fitted to competitive inhibition kinetic model to determine the Ki.
# The compound numbers correspond to the compound numbers in Tables 1-3.
# T1 sequence (P53779 40-402): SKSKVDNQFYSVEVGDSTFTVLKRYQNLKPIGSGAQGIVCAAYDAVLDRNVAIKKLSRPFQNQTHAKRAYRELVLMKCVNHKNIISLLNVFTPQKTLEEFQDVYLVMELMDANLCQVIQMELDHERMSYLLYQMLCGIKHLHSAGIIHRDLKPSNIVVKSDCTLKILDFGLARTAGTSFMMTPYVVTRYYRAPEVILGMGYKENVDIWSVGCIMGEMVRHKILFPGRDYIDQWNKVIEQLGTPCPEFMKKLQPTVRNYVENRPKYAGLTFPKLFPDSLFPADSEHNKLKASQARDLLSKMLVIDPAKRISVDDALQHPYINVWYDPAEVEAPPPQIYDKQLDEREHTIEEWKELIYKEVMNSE
row,SMILES,Ki [µM]
1,COCn1c(-c2ccnc(Nc3ccc(F)cc3)n2)cnc1-c1ccccc1 [IIa-11],> 1
2,COCn1c(-c2ccnc(Nc3ccccc3)n2)cnc1-c1ccccc1 [IIa-12],> 1
3,COCn1c(-c2ccnc(Nc3ccc([N+](=O)[O-])cc3)n2)cnc1-c1ccccc1 [IIa-13],> 1
4,COCn1c(-c2ccnc(Nc3cc(OC)cc(OC)c3)n2)cnc1-c1ccccc1 [IIa-15],> 1
5,COCn1c(-c2ccnc(Nc3cccc(Br)c3)n2)cnc1-c1ccccc1 [IIa-16],> 1
6,COCn1c(-c2ccnc(Nc3cccc(OCc4ccccc4)c3)n2)cnc1-c1ccccc1 [IIa-17],> 1
7,COc1cccc(Nc2nccc(-c3cnc(-c4cccnc4)n3C)n2)c1 [IIa-18],0.1 to 1
8,COc1cc(Nc2nccc(-c3cnc(-c4cccnc4)n3C)n2)cc(OC)c1 [IIa-19],0.1 to 1
9,Cn1c(-c2ccnc(Nc3cccc(Br)c3)n2)cnc1-c1cccnc1 [IIa-20],0.1 to 1
10,Cn1c(-c2ccnc(Nc3ccc([N+](=O)[O-])cc3)n2)cnc1-c1cccnc1 [IIa-21],0.1 to 1
11,COC(=O)c1cccc(Nc2nccc(-c3cnc(-c4cccnc4)n3C)n2)c1 [IIa-22],0.1 to 1
12,Clc1ccc(Nc2nccc(-c3cnc(Cc4c(Cl)cccc4Cl)[nH]3)n2)cc1 [IIa-23],0.1 to 1
13,COc1cccc(Nc2nccc(-c3cnc(Cc4c(Cl)cccc4Cl)[nH]3)n2)c1 [IIa-25],< 0.1
14,COc1cc(Nc2nccc(-c3cnc(Cc4c(Cl)cccc4Cl)[nH]3)n2)cc(OC)c1 [IIa-26],0.1 to 1
15,Clc1cccc(Cl)c1Cc1ncc(-c2ccnc(Nc3cccc(Br)c3)n2)[nH]1 [IIa-27],0.1 to 1
16,Clc1cccc(Cl)c1Cc1ncc(-c2ccnc(Nc3ccccc3)n2)[nH]1 [IIa-28],0.1 to 1
17,Clc1cccc(Cl)c1Cc1ncc(-c2ccnc(Nc3cccc(OCc4ccccc4)c3)n2)[nH]1 [IIa-29],0.1 to 1
18,O=[N+]([O-])c1ccc(Nc2nccc(-c3cnc(Cc4c(Cl)cccc4Cl)[nH]3)n2)cc1 [IIa-30],0.1 to 1
19,COC(=O)c1cccc(Nc2nccc(-c3cnc(Cc4c(Cl)cccc4Cl)[nH]3)n2)c1 [IIa-31],0.1 to 1
20,Clc1ccc(Nc2nccc(-c3cnc(Cc4c(Cl)cccc4Cl)[nH]3)n2)cn1 [IIa-32],0.1 to 1
21,"Clc1ccc(Nc2nccc(-c3cnc(-c4ccccc4)o3)n2)cc1 [IIb-1, (4-Chloro-phenyl)-[4-(2-phenyl-oxazol-5-yl)-pyrimidin-2yl]-amine]",> 1
22,Fc1ccc(Nc2nccc(-c3cnc(-c4ccccc4)o3)n2)cc1 [IIb-2],0.1 to 1
23,COc1cccc(Nc2nccc(-c3cnc(-c4ccccc4)o3)n2)c1 [IIb-3],0.1 to 1
24,COc1cc(Nc2nccc(-c3cnc(-c4ccccc4)o3)n2)cc(OC)c1 [IIb-4],0.1 to 1
25,c1ccc(Nc2nccc(-c3cnc(-c4ccccc4)o3)n2)cc1 [IIb-5],0.1 to 1
26,c1ccc(COc2cccc(Nc3nccc(-c4cnc(-c5ccccc5)o4)n3)c2)cc1 [IIb-6],0.1 to 1
27,O=[N+]([O-])c1ccc(Nc2nccc(-c3cnc(-c4ccccc4)o3)n2)cc1 [IIb-7],0.1 to 1
28,Cc1nc(-c2cccs2)sc1-c1ccnc(Nc2ccc(Cl)cc2)n1 [IIc-24],> 1
29,Cc1nc(-c2cccs2)sc1-c1ccnc(Nc2ccc([N+](=O)[O-])cc2)n1 [IIc-25],> 1
